ChEMBL document CHEMBL1134429, “The development of a potential single photon emission computed tomography (SPECT) imaging agent for the corticotropin-releasing hormone receptor type” (Bioorg Med Chem Lett, 2001)

Target: T1, Corticotropin-releasing factor receptor 1 (Rattus norvegicus, UniProt P35353)
T1 sequence (P35353 whole entry): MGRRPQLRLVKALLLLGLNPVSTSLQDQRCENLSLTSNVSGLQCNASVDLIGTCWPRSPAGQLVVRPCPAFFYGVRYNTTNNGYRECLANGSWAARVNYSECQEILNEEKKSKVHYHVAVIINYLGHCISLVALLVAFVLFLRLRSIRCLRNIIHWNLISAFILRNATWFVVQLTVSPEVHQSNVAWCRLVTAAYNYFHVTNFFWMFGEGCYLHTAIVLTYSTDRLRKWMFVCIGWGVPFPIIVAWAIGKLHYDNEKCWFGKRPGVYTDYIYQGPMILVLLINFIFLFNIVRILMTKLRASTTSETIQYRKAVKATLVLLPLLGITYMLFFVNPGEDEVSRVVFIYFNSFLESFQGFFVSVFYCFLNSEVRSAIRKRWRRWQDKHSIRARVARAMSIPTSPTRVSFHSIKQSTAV
Assay: Binding affinity towards Corticotropin releasing hormone receptor type 1 of rat cerebellum using [125I]Tyr-sauvagine as radioligand.
Assay type: tissue-based

In the case of CCCN(CC1CC1)c1nc(C)nc(Nc2c(Cl)cc(Cl)cc2Cl)c1Cl, the Ki is reported as 31 nM.
Work on CCCN(CC1CC1)c1nc(C)nc(Nc2c(Cl)cc(I)cc2Cl)c1Cl yielded a Ki of 14 nM.
